Data from patent US12545677B2, “Compounds useful as factor XIa inhibitors” (JANSSEN PHARMACEUTICA NV, priority 2020, dated 2026).

Target: Factor XIa (Homo sapiens, UniProt P03951)
Test: Factor XIa inhibition assay using fluorophore-quencher pair peptide substrate
Type: biochemical
Description: Biological Example 1: Factor XIa Inhibition Assay
Using Fluorophore-quencher Pair Peptide Substrate
A fluorescence intensity-based assay was used to monitor inhibition of Factor XIa. The peptide substrate, 5Fam-[…]-K5Tamra (purchased from New England Peptide) was chosen based on the […]. Conversion of zymogen FIX to its activated form, FIXa, occurs by proteolytic cleavage by FXIa at two sites, Arg146 and Arg180. The custom peptide used in this assay was based on the Arg146 cleavage site. The peptide substrate was designed with a fluorophore-quencher pair, where the fluorescence is quenched until FXIa cleaves the 8-mer peptide after the Arg residue.
Factor XIa FLINT assay was used with the following 5Fam-[…]-K5Tamra assay buffer: 50 mM Tris, pH 7.5, 100 mM NaCl, 5 mM CaCl2, 0.1 mg/mL BSA, 0.03% CHAPS was used. Assay buffer was prepared by mixing all ingredients fresh. 2×5Fam-[…]-K5Tamra peptide substrate was first prepared in 100% DMSO, then diluted 10 mM to 3 mM in 100% DMSO. Assay buffer was then added directly to the 3 mM stock of substrate to prepare the 30 μM 2× working concentration (15 μM final concentration). The 2× Factor XIa stock solution was prepared by diluting 6.562 μM stock in 1× assay buffer for a 200 pM working stock solution (100 pM final concentration).
Test compound(s) were run in an 11-point, 3-fold serial dilution with a final top compound concentration of […]. Final DMSO in assay was 2% DMSO. FXIa and compound were pre-incubated for 30 minutes and substrate was then added to initiate the reaction. The assay was linear using 100 pM FXIa greater than 30 minutes. More specifically, the assay was run as follows: • 100 nL of 1 mM test compound was dispensed into a black 384-well non-binding Greiner BioOne 784900 plate for 10 μM final concentration with 1% DMSO final concentration; • 5 μL of 1× assay buffer was dispensed to column 24 (low control) and 5 μL 2× Factor XIa solution was dispensed to columns 1-23 (column 23 high control); • the plate was centrifuged with a “cover” plate at 500 rpm for 1 min • the plate was pre-incubated for 30 minutes at room temperature with plate covered; • 5 μL of 2× 5Fam-[…]-K5Tamra peptide substrate was dispensed into the entire plate, columns 1-24; • the plate was centrifuged with a cover plate at 500 rpm for 1 min; • the plate was read kinetically monitoring fluorescence intensity on the BMG PHERAStar at room temperature, using fluorescence module F1 485 mm/520 mm.
Percent inhibition (IC50) curves were generated per compound tested, and data was analyzed using a 4-parameter logistic fit using GeneData Screener. […]

Chain of Factor XIa (P03951 388-625 limits assumed): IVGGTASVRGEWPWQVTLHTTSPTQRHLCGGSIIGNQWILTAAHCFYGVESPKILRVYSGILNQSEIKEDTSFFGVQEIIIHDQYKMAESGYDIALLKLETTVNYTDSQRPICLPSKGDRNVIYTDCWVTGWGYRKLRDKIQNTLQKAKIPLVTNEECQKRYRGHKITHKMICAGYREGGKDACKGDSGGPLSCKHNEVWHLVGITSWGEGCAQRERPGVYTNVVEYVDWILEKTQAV
Chain of Factor XIa (P03951 19-387 partner limits assumed): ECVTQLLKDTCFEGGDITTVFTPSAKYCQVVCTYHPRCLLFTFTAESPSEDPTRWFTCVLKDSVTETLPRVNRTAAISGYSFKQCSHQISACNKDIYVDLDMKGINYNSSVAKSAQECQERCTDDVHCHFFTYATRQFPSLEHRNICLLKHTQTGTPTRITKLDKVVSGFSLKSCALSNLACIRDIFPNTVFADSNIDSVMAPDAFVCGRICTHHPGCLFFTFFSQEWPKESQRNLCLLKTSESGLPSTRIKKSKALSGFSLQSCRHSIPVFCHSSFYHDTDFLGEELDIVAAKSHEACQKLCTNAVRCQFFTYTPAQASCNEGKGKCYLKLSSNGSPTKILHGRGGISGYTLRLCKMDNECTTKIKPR

IC50: 0.3 nM
SMILES: O=C(O)c1nccc(-c2cnc([C@@H]3CC[C@@H]4CC(c5c(-n6cnnn6)ccc(Cl)c5F)=CC(=O)N43)[nH]2)c1F [Compound of formula (II-A), 4-(2-((3S,8aR)-7-(3-chloro-2-fluoro-6-(1H-tetrazol-1-yl)phenyl)-5-oxo-1,2,3,5,8,8a-hexahydroindolizin-3-yl)-1H-imidazol-5-yl)-3-fluoropicolinic acid]
